This is an account of results in US11285156B2, “Substituted piperazines as KRAS G12C inhibitors” (Amgen Inc., priority 2018, dated 2022).

Read-outs that look alike come from different tables or passages of the source.

In assay [1] the test system is Phosphorylation of ERK1/2 in MIA PaCa-2 cells. Kind of assay: Phospho-ERK1/2 MSD assay in MIA PaCa-2 cells. The note with it: read-out: p-ERK IC50 (2 h, MiaPaCa-2; μM), 2 h compound treatment, MIA PaCa-2 cells, EGF stimulated. It is filed as cell-based. Here is the method:
Phospho-ERK1/2 MSD Assay:
Sixteen hours prior to compound treatment, MIA PaCa-2 or A549 cells were seeded in 96-well cell culture plates at a density of 25,000 cells/well and incubated at 37° C., 5% CO2. A compound dose-response titration was diluted in growth media, added to appropriate wells of a cell culture plate, and then incubated at 37° C., 5% CO2 for 2 or 4 hours (see Table 15). Following compound treatment, cells were stimulated with 10 ng/mL EGF (Roche 11376454001) for 10 min, washed with ice-cold Dulbecco's phosphate-buffered saline, no Ca2+ or Mg2+ (ThermoFisher Scientific 14190144), and then lysed in RIPA buffer (50 mM Tris-HCl pH 7.5, 1% Igepal, 0.5% sodium deoxycholate, 150 mM NaCl. and 0.5% sodium dodecyl sulfate) containing protease inhibitors (Roche 4693132001) and phosphatase inhibitors (Roche 4906837001). Phosphorylation of ERK1/2 in compound-treated lysates was assayed using Phospho-ERK1/2 Whole Cell Lysate kits (Meso Scale Discovery K151DWD) according to the manufacturer's protocol.

For assay [2], the target named is GDP-bound KRAS protein (aa 1-169), containing both G12C and C118A amino acid substitutions (Homo sapiens (Human), UniProt P01116, C118A/G12C). Kind of assay: Coupled nucleotide exchange assay (SOS-mediated nucleotide exchange, AlphaScreen). Format: biochemical. The note with it: 5 min compound pre-incubation; for IC50: read-out: Coupled exchange IC50 (5 min; μM).
Sequence of GDP-bound KRAS protein (aa 1-169), containing both G12C and C118A amino acid substitutions (P01116 other isoform, or with tags, fused parts or gaps G12C/C118A): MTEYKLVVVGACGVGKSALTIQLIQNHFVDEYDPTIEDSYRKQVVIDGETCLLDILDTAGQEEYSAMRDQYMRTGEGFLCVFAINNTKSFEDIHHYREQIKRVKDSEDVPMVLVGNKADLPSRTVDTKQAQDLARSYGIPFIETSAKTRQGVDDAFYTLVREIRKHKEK

What is called IC50 is the concentration that gives 50% inhibition. On to `C=CC(=O)N1C[C@H](C)N(c2nc(=O)n(-c3c(N(C)C)ccnc3C(C)C)c3nc(-c4c(F)cccc4NC(=O)CC)c(Cl)cc23)C[C@H]1C` [Example 122-2, N-[2-[6-Chloro-1-[4-(dimethylamino)-2-isopropyl-3-pyridyl]-4-[(2S,5R)-2,5-dimethyl-4-prop-2-enoyl-piperazin-1-yl]-2-oxo-pyrido[2,3-d]pyrimidin-7-yl]-3-fluoro-phenyl]propanamide], for which the IC50 was found to be 1.21 µM in assay [1] (Homo sapiens, MIA PaCa-2, 2 h) and 0.357 µM in assay [2].

On to `C=CC(=O)N1C[C@H](C)N(c2nc(=O)n3c4nc(c(Cl)cc24)-c2ccccc2C/C=C/Cc2cccc(C(C)C)c2-3)C[C@H]1C` (single isomer, unassigned) [Example 146-2-1], for which the IC50 in assay [1] amounted to 0.024 µM; in assay [2] it was 0.025 µM. `C=CC(=O)N1C[C@H](C)N(c2nc(=O)n(-c3c(C)cc(S(C)(=O)=O)cc3C(C)C)c3nc(-c4ccccc4F)c(Cl)cc23)C[C@H]1C` [Example 215, 4-((2S,5R)-4-Acryloyl-2,5-dimethylpiperazin-1-yl)-6-chloro-7-(2-fluorophenyl)-1-(2-isopropyl-6-methyl-4-(methylsulfonyl)phenyl)pyrido[2,3-d]pyrimidin-2(1H)-one]: the IC50 in assay [1] (Homo sapiens, MIA PaCa-2, 2 h) stood at 0.275 µM; in assay [2], 0.076 µM. In the case of `C=CC(=O)N1CCN(c2nc(=O)n(CC(C)(C)O)c3nc(-c4ccccc4F)c(Cl)cc23)CC1` [Example 180, 4-(4-Acryloylpiperazin-1-yl)-6-chloro-7-(2-fluorophenyl)-1-(2-hydroxy-2-methylpropyl)pyrido[2,3-d]pyrimidin-2(1H)-one], in assay [1] (Homo sapiens, MIA PaCa-2, 2 h), the IC50 is 10 µM. Besides, the “Coupled exchange IC50 (5 min; μM)” value in assay [2] worked out at 85.1 µM. Take `C=CC(=O)N1C[C@H](C)N(c2nc(=O)n(-c3c(C(C)C)nc(-c4ccoc4)nc3C(C)C)c3nc(-c4ccccc4F)c(Cl)cc23)C[C@H]1C` [Example 171, 6-Chloro-4-[(2S,5R)-2,5-dimethyl-4-prop-2-enoyl-piperazin-1-yl]-7-(2-fluorophenyl)-1-[2-(3-furyl)-4,6-diisopropyl-pyrimidin-5-yl]pyrido[2,3-d]pyrimidin-2-one]: in assay [2], the IC50 turned out to be 0.206 µM. On the same count and under the same terms, the figure for `C=CC(=O)N1C[C@H](C)N(c2nc(=O)n(-c3c(C)ccnc3C(C)C)c3nc(-c4ccccc4C(=O)NC)c(F)cc23)C[C@H]1C` (atropisomer, axis not shown; (M)) [Example 94-18] is 0.749 µM; for `C=CC(=O)N1[C@H](C)CN(c2nc(=O)n(-c3c(C)ccnc3C(C)C)c3nc(-c4ccccc4F)c(Cl)nc23)C[C@@H]1C` (single isomer, unassigned) [Example 224-2] it is 1.29 µM; for `CC#CC(=O)N1C[C@H](C)N(c2nc(=O)n(-c3c(C)ccnc3C(C)C)c3nc(-c4ccccc4F)c(F)cc23)C[C@H]1C` [Example 119-1, 4-((2S,5R)-4(But-2-ynoyl)-2,5-dimethylpiperazin-1-yl)-6-fluoro-7-(2-fluorophenyl)-1-(2-isopropyl-4-methylpyridin-3-yl)pyrido[2,3-d]pyrimidin-2(1H)-one] it is 24 µM. As for `C=CC(=O)N1C[C@H](C)N(c2nc(=O)n(-c3c(C)ncnc3C(C)C)c3nc(-c4ccccc4F)c(Cl)cc23)C[C@H]1C` (single isomer, unassigned) [Example 194-2], in assay [2], the “Coupled exchange IC50 (5 min; μM)” value was found to be 1.45 µM.

Turning to `C=CC(=O)N1C[C@H](C)N(c2nc(=O)n(-c3c(C)cc([S+](C)[O-])cc3C(C)C)c3nc(-c4ccccc4C)c(Cl)cc23)C[C@H]1C` (single isomer, unassigned) [Example 213-4], the “Coupled exchange IC50 (5 min; μM)” value in assay [2] was determined as 1.51 µM.

In the case of `C=CC(=O)N1C[C@H](C)N(c2nc(=O)n(-c3c(C)ccnc3C(C)C)c3nc(-c4ccccc4F)c(Cl)nc23)C[C@H]1C` (single isomer, unassigned) [Example 106-6-1], the IC50 in assay [2] came out at 3.67 µM.

Regarding `C=CC(=O)N1C[C@H]2CCC[C@@H](C1)N2c1nc(=O)n(-c2c(C)ccnc2C(C)C)c2nc(-c3ccccc3F)c(Cl)cc12` (atropisomer, axis not shown; (M)) [Example 79-12, (M)-6-Chloro-7-(2-fluorophenyl)-1-(2-isopropyl-4-methyl-3-pyridyl)-4-[(1S,5R)-3-prop-2-enoyl-3,9-diazabicyclo[3.3.1]nonan-9-yl]pyrido[2,3-d]pyrimidin-2-one], the 50% inhibitory concentration (IC50) in assay [2] worked out at 5.46 µM. `C=CC(=O)N1C[C@H](C)N(c2nc(=O)n(-c3c(N(C)C)ccnc3C(C)C)c3nc(-c4ccccc4C)c(Cl)cc23)C[C@H]1C` (single isomer, unassigned) [Example 103-7-1]: the IC50 in assay [2] turned out to be 0.653 µM. Regarding `C=CC(=O)N1C[C@H](C)N(c2nc(=O)n(-c3c(C(C)C)cccc3[S+](C)[O-])c3nc(-c4ccccc4F)c(Cl)cc23)C[C@H]1C` (single isomer, unassigned) [Example 209-2], in assay [2], the “Coupled exchange IC50 (5 min; μM)” value was found to be 1.34 µM. Still for that read-out and setting: the figure for `C=CC(=O)N1CCN(c2nc(=O)n(-c3c(C)ccnc3C(C)C)c3nc(-c4c(C)ccc5c4CC(=O)N5)c(Cl)cc23)[C@@H](C)C1` [Example 228, 4-((S)-4-Acryloyl-2-methylpiperazin-1-yl)-6-chloro-1-(2-isopropyl-4-methylpyridin-3-yl)-7-(5-methyl-2-oxoindolin-4-yl)pyrido[2,3-d]pyrimidin-2(1H)-one] is 0.769 µM. `C=CC(=O)N1C[C@H](C)N(c2nc(=O)n(-c3ccccc3C(C)C)c3c2CCN(c2ccccc2)C3)C[C@H]1C` [Example 152, 4-((2S,5R)-4-Acryloyl-2,5-dimethylpiperazin-1-yl)-1-(2-isopropylphenyl)-7-phenyl-5,6,7,8-tetrahydropyrido[3,4-d]pyrimidin-2(1H)-one]: the IC50 in assay [2] turned out to be 132 µM. Regarding `C=CC(=O)N1[C@H](C)CN(c2nc(=O)n(-c3c(C)cc(N)nc3C(C)C)c3nc(-c4c(N)cccc4F)c(F)cc23)C[C@@H]1C` (single isomer, unassigned) [Example 123-5], the values for the IC50 in assay [1] and in assay [2] were 10 µM and 7.53 µM, respectively. For `C=CC(=O)N1C[C@H](C)N(c2nc(=O)n(-c3c(N(CC)CC)ccnc3C(C)C)c3nc(-c4ccccc4C(C)C)c(Cl)cc23)C[C@H]1C` (single isomer, unassigned) [Example 103-6-1], the IC50 in assay [2] was found to be 1.15 µM. For `C=CC(=O)N1C[C@@H](C)N(c2nc(=O)n(-c3c(C)ccnc3C(C)C)c3nc(-c4ccccc4F)c(Cl)nc23)[C@@H](C)C1` [Example 106-7-1, 6-Chloro-4-[(2R,6S)-2,6-dimethyl-4-prop-2-enoyl-piperazin-1-yl]-7-(2-fluorophenyl)-1-(2-isopropyl-4-methyl-3-pyridyl)pteridin-2-one], the IC50 in assay [2] was 1.98 µM.

Consider `C=CC(=O)N1C[C@H](C)N(c2nc(=O)n(-c3c(N(C)C)ccnc3C(C)C)c3nc(-c4c(F)cccc4NC(=O)CC)c(Cl)cc23)C[C@H]1C` (single isomer, unassigned) [Example 122-2-1], for which the concentration for half-maximal inhibition (IC50) in assay [2] turned out to be 17.3 µM. The same measure, in the same setting: under `C=CC(=O)N1C[C@H](C)N(c2nc(=O)n(-c3c(C)ccnc3C(C)C)c3nc(-c4ccsc4)c(Cl)cc23)C[C@H]1C` (atropisomer, axis not shown; (M)) [Example 92-50, (M)-6-Chloro-4-[(2S,5R)-2,5-dimethyl-4-prop-2-enoyl-piperazin-1-yl]-1-(2-isopropyl-4-methyl-3-pyridyl)-7-(3-thienyl)pyrido[2,3-d]pyrimidin-2-one] stands 1.1 µM. Still for that read-out and setting: under `C=CC(=O)N1C[C@H](C)N(c2nc(=O)n(-c3c(C(C)C)cccc3S(C)(=O)=O)c3nc(-c4ccccc4F)c(Cl)cc23)C[C@H]1C` (single isomer, unassigned) [Example 208-1] stands 2.56 µM; under `C=CC(=O)N1C[C@H](C)N(c2nc(=O)n(-c3c(C)ccnc3C(C)C)c3nc(-c4ccccc4C(N)=O)c(F)cc23)C[C@H]1C` (atropisomer, axis not shown; (M)) [Example 94-17, (M)-2-[4-[(2S,5R)-2,5-Dimethyl-4-prop-2-enoyl-piperazin-1-yl]-6-fluoro-1-(2-isopropyl-4-methyl-3-pyridyl)-2-oxo-pyrido[2,3-d]pyrimidin-7-yl]benzamide], 0.39 µM.
